Data from the NIST ThermoML archive (doi:10.1016/j.jct.2016.09.041).
Where “and” joins values, the source holds several entries; their conditions need not be identical. Identical values can stand only once.

Assay: molar heat capacity at constant pressure
Settings: 101.33 kPa, Small (less than 1 g) adiabatic calorimetry

N[C@@H](Cc1c[nH]c2ccccc12)C(=O)O [L-tryptophan]
molar heat capacity at constant pressure
Settings	Crystal	Crystal 1
5 K	0.6568 J/K/mol	–
7.14 K	1.912 J/K/mol	–
7.31 K	2.029 J/K/mol	–
7.49 K	2.253 J/K/mol	–
7.66 K	2.22 J/K/mol	–
7.83 K	2.345 J/K/mol	–
8.01 K	2.511 J/K/mol	–
8.17 K	2.719 J/K/mol	–
8.33 K	2.893 J/K/mol	–
8.49 K	3.026 J/K/mol	–
8.64 K	3.118 J/K/mol	–
8.8 K	3.193 J/K/mol	–
8.95 K	3.5 J/K/mol	–
9.1 K	3.492 J/K/mol	–
9.25 K	3.783 J/K/mol	–
9.39 K	4.024 J/K/mol	–
9.54 K	4.041 J/K/mol	–
9.69 K	4.141 J/K/mol	–
9.83 K	4.34 J/K/mol	–
9.98 K	4.506 J/K/mol	–
10 K	4.49 J/K/mol	–
10.17 K	4.656 J/K/mol	–
10.41 K	4.889 J/K/mol	–
10.66 K	5.08 J/K/mol	–
10.9 K	5.363 J/K/mol	–
11.14 K	5.712 J/K/mol	–
11.39 K	5.978 J/K/mol	–
11.63 K	6.153 J/K/mol	–
11.88 K	6.419 J/K/mol	–
12.12 K	6.768 J/K/mol	–
12.37 K	7.009 J/K/mol	–
12.62 K	7.325 J/K/mol	–
12.87 K	7.591 J/K/mol	–
13.12 K	7.874 J/K/mol	–
13.37 K	8.132 J/K/mol	–
13.62 K	8.481 J/K/mol	–
13.87 K	8.697 J/K/mol	–
14.12 K	8.988 J/K/mol	–
14.37 K	9.37 J/K/mol	–
14.63 K	9.612 J/K/mol	–
14.89 K	9.994 J/K/mol	–
15 K	10.06 J/K/mol	–
15.14 K	10.24 J/K/mol	–
15.4 K	10.54 J/K/mol	–
15.65 K	10.85 J/K/mol	–
15.91 K	11.26 J/K/mol	–
16.17 K	11.59 J/K/mol	–
16.42 K	11.93 J/K/mol	–
16.68 K	12.31 J/K/mol	–
16.94 K	12.6 J/K/mol	–
17.2 K	12.88 J/K/mol	–
17.46 K	13.23 J/K/mol	–
17.72 K	13.64 J/K/mol	–
17.98 K	13.93 J/K/mol	–
18.24 K	14.28 J/K/mol	–
18.5 K	14.56 J/K/mol	–
18.77 K	14.98 J/K/mol	–
19.04 K	15.27 J/K/mol	–
19.3 K	15.67 J/K/mol	–
19.56 K	16.11 J/K/mol	–
19.82 K	16.35 J/K/mol	–
20 K	16.55 J/K/mol	–
20.09 K	16.75 J/K/mol	–
20.64 K	17.32 J/K/mol	–
21.4 K	18.33 J/K/mol	–
22.16 K	19.27 J/K/mol	–
22.93 K	20.25 J/K/mol	–
23.7 K	21.21 J/K/mol	–
24.47 K	22.27 J/K/mol	–
25 K	22.95 J/K/mol	–
25.24 K	23.36 J/K/mol	–
26.01 K	24.35 J/K/mol	–
26.79 K	25.26 J/K/mol	–
27.56 K	26.17 J/K/mol	–
28.34 K	27.19 J/K/mol	–
29.12 K	28.15 J/K/mol	–
29.9 K	29.13 J/K/mol	–
30 K	29.35 J/K/mol	–
30.69 K	30.2 J/K/mol	–
31.47 K	31.22 J/K/mol	–
32.25 K	32.16 J/K/mol	–
33.04 K	33.14 J/K/mol	–
33.83 K	34.04 J/K/mol	–
34.62 K	34.9 J/K/mol	–
35 K	35.34 J/K/mol	–
35.41 K	35.81 J/K/mol	–
36.19 K	36.73 J/K/mol	–
36.98 K	37.56 J/K/mol	–
37.77 K	38.4 J/K/mol	–
38.56 K	39.29 J/K/mol	–
39.36 K	40.19 J/K/mol	–
40 K	40.82 J/K/mol	–
40.15 K	40.92 J/K/mol	–
40.94 K	41.77 J/K/mol	–
41.73 K	42.6 J/K/mol	–
42.53 K	43.43 J/K/mol	–
43.32 K	44.32 J/K/mol	–
44.11 K	45.14 J/K/mol	–
44.91 K	45.95 J/K/mol	–
45 K	45.9 J/K/mol	–
45.71 K	46.69 J/K/mol	–
46.51 K	47.37 J/K/mol	–
47.31 K	48.09 J/K/mol	–
48.11 K	48.71 J/K/mol	–
48.9 K	49.39 J/K/mol	–
49.7 K	50.03 J/K/mol	–
50 K	50.55 J/K/mol	–
50.5 K	50.81 J/K/mol	–
51.3 K	51.51 J/K/mol	–
52.1 K	52.37 J/K/mol	–
52.9 K	53.35 J/K/mol	–
53.7 K	54.34 J/K/mol	–
54.5 K	55.43 J/K/mol	–
55.3 K	55.65 J/K/mol	–
56.1 K	56.39 J/K/mol	–
56.9 K	57.23 J/K/mol	–
57.7 K	57.95 J/K/mol	–
58.51 K	58.68 J/K/mol	–
59.31 K	59.42 J/K/mol	–
60 K	60.03 J/K/mol	–
60.12 K	60.15 J/K/mol	–
60.92 K	60.88 J/K/mol	–
61.73 K	61.6 J/K/mol	–
62.52 K	62.33 J/K/mol	–
63.32 K	63.58 J/K/mol	–
64.13 K	64.21 J/K/mol	–
64.93 K	64.88 J/K/mol	–
65.73 K	65.32 J/K/mol	–
66.54 K	65.98 J/K/mol	–
67.34 K	66.53 J/K/mol	–
68.15 K	67.1 J/K/mol	–
68.95 K	67.91 J/K/mol	–
69.75 K	68.59 J/K/mol	–
70 K	68.68 J/K/mol	–
70.56 K	69.1 J/K/mol	–
71.35 K	69.78 J/K/mol	–
72.16 K	70.26 J/K/mol	–
72.96 K	70.81 J/K/mol	–
73.76 K	71.51 J/K/mol	–
74.56 K	72.19 J/K/mol and 72.19 J/K/mol	–
75.36 K	72.76 J/K/mol	–
76.16 K	73.55 J/K/mol and 73.54 J/K/mol	–
76.96 K	74.19 J/K/mol	–
77.76 K	74.88 J/K/mol and 74.88 J/K/mol	–
77.81 K	74.18 J/K/mol	–
77.91 K	74.86 J/K/mol	–
77.92 K	74.32 J/K/mol	–
78.27 K	74.94 J/K/mol	–
78.42 K	75.32 J/K/mol	–
78.45 K	75.01 J/K/mol	–
78.56 K	75.5 J/K/mol	–
78.82 K	75.44 J/K/mol	–
78.84 K	74.99 J/K/mol	–
78.87 K	75.62 J/K/mol	–
79.2 K	75.99 J/K/mol	71.01 J/K/mol
79.22 K	75.33 J/K/mol	–
79.24 K	75.75 J/K/mol	–
79.33 K	76.02 J/K/mol	–
79.36 K	76.16 J/K/mol	–
79.37 K	76.15 J/K/mol	–
79.62 K	–	70.64 J/K/mol
79.64 K	–	70.29 J/K/mol
79.68 K	–	70.63 J/K/mol
80 K	–	71.09 J/K/mol
80.02 K	–	71.26 J/K/mol
80.04 K	–	70.54 J/K/mol
80.14 K	–	70.97 J/K/mol
80.17 K	–	71.35 J/K/mol and 71.35 J/K/mol
80.19 K	–	71.22 J/K/mol
80.41 K	–	71.6 J/K/mol
80.43 K	–	70.98 J/K/mol
80.48 K	–	71.27 J/K/mol
80.81 K	–	72.02 J/K/mol
80.83 K	–	71.17 J/K/mol
80.94 K	–	71.85 J/K/mol
80.98 K	–	72.02 J/K/mol and 72.02 J/K/mol
80.99 K	–	72 J/K/mol
81.21 K	–	72.51 J/K/mol
81.23 K	–	71.92 J/K/mol
81.28 K	–	72.06 J/K/mol
81.61 K	–	72.57 J/K/mol
81.63 K	–	72.55 J/K/mol
81.74 K	–	72.46 J/K/mol
81.79 K	–	72.78 J/K/mol and 72.65 J/K/mol and 72.78 J/K/mol
82 K	–	72.93 J/K/mol
82.02 K	–	72.8 J/K/mol
82.08 K	–	72.96 J/K/mol
82.42 K	–	73.44 J/K/mol
82.55 K	–	73.18 J/K/mol
82.59 K	–	73.58 J/K/mol and 73.47 J/K/mol and 73.58 J/K/mol
82.82 K	–	73.8 J/K/mol
82.88 K	–	73.57 J/K/mol
83.22 K	–	74.06 J/K/mol
83.35 K	–	74 J/K/mol
83.4 K	–	74.08 J/K/mol
83.68 K	–	74.24 J/K/mol
84.15 K	–	74.8 J/K/mol
84.2 K	–	74.77 J/K/mol
84.49 K	–	74.98 J/K/mol
84.95 K	–	75.46 J/K/mol
85 K	–	75.41 J/K/mol
85.29 K	–	75.62 J/K/mol
85.8 K	–	76.16 J/K/mol
86.6 K	–	77.02 J/K/mol
87.4 K	–	77.55 J/K/mol
88.21 K	–	78.21 J/K/mol
89.01 K	–	78.75 J/K/mol
89.81 K	–	79.34 J/K/mol
90 K	–	79.57 J/K/mol
90.61 K	–	80.12 J/K/mol
91.41 K	–	80.65 J/K/mol
92.22 K	–	81.07 J/K/mol
93.02 K	–	81.81 J/K/mol
93.82 K	–	82.48 J/K/mol
94.62 K	–	83.08 J/K/mol
95.43 K	–	83.56 J/K/mol
96.23 K	–	84.06 J/K/mol
97.03 K	–	84.89 J/K/mol
97.83 K	–	85.56 J/K/mol
98.64 K	–	86.05 J/K/mol
99.44 K	–	86.39 J/K/mol
100 K	–	86.89 J/K/mol
100.24 K	–	86.97 J/K/mol
101.04 K	–	87.55 J/K/mol
101.84 K	–	88.13 J/K/mol
102.65 K	–	88.72 J/K/mol
103.45 K	–	89.38 J/K/mol
104.25 K	–	89.71 J/K/mol
105.05 K	–	90.38 J/K/mol
105.85 K	–	91.04 J/K/mol
106.65 K	–	91.46 J/K/mol
107.45 K	–	91.87 J/K/mol
108.25 K	–	92.54 J/K/mol
109.05 K	–	93.12 J/K/mol
109.85 K	–	93.62 J/K/mol
110 K	–	93.7 J/K/mol
110.66 K	–	94.2 J/K/mol
111.46 K	–	94.78 J/K/mol
112.26 K	–	95.2 J/K/mol
113.06 K	–	95.87 J/K/mol
113.86 K	–	96.36 J/K/mol
114.66 K	–	96.61 J/K/mol
115.47 K	–	97.36 J/K/mol
116.27 K	–	97.7 J/K/mol
117.07 K	–	98.61 J/K/mol
117.87 K	–	99.11 J/K/mol
118.67 K	–	99.69 J/K/mol
119.47 K	–	100.27 J/K/mol
120 K	–	100.44 J/K/mol
120.28 K	–	100.85 J/K/mol
121.08 K	–	101.19 J/K/mol
121.88 K	–	101.85 J/K/mol
122.68 K	–	102.27 J/K/mol
123.49 K	–	102.77 J/K/mol
